According to the supplement of paper PMC10307832:

Assays:
Assay in all cases: relative viability (nuclei count vs DMSO), 5 days (fraction); higher = more cells survive
[1] = compound: COc1cc2nccc(Oc3ccc(NC(=O)C4(C(=O)Nc5ccc(F)cc5)CC4)cc3)c2cc1OC [Cabozantinib] + Cc1cc(Nc2cc(N3CCN(C)CC3)nc(Sc3ccc(NC(=O)C4CC4)cc3)n2)n[nH]1 [Tozasertib] (partner 0.1 µM)
Procedure, shortened: (§1)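 Lung cancer cell lines in 1536-well plates got either a single drug or a fixed anchor-drug dose together with five library-drug doses (not always all listed) in √10 steps, by pin tool, on the day after seeding. Nuclei were counted after 5 days, and relative viability is the treated-to-vehicle ratio of nuclei counts. Values are medians of duplicate plates.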

Zosuquidar + Bortezomib = compound: O[C@@H](COc1cccc2ncccc12)CN1CCN([C@@H]2c3ccccc3[C@@H]3[C@H](c4ccccc42)C3(F)F)CC1 [Zosuquidar] + CC(C)C[C@H](NC(=O)[C@H](Cc1ccccc1)NC(=O)c1cnccn1)B(O)O [Bortezomib] (partner 0.002 µM)
Procedure, shortened: as §1

Kobe2602 + Alpelisib = compound: C1=CC(=CC=C1NC(=S)NNC2=C(C=C(C=C2[N+](=O)[O-])C(F)(F)F)[N+](=O)[O-])F [Kobe2602] + Cc1nc(NC(=O)N2CCC[C@H]2C(N)=O)sc1-c1ccnc(C(C)(C)C(F)(F)F)c1 [Alpelisib] (partner 2 µM)
Procedure, shortened: as §1

Kobe2602 + Navitoclax = compound: C1=CC(=CC=C1NC(=S)NNC2=C(C=C(C=C2[N+](=O)[O-])C(F)(F)F)[N+](=O)[O-])F [Kobe2602] + CC1(C)CCC(c2ccc(Cl)cc2)=C(CN2CCN(c3ccc(C(=O)NS(=O)(=O)c4ccc(N[C@H](CCN5CCOCC5)CSc5ccccc5)c(S(=O)(=O)C(F)(F)F)c4)cc3)CC2)C1 [Navitoclax] (partner 0.5 µM)
Procedure, shortened: as §1

UMC-11
relative viability ([1]; first compound 0.02 µM): 0.192 | relative viability ([1]; first compound 0.06325 µM): 0.2 | relative viability ([1]; first compound 0.2 µM): 0.203 | relative viability ([1]; first compound 0.6325 µM): 0.204 | relative viability ([1]; first compound 2 µM): 0.202 | relative viability (Zosuquidar + Bortezomib; first compound 0.01 µM): 0.654 | relative viability (Zosuquidar + Bortezomib; first compound 0.03162 µM): 0.715 | relative viability (Zosuquidar + Bortezomib; first compound 0.1 µM): 0.676 | relative viability (Zosuquidar + Bortezomib; first compound 0.3162 µM): 1.06 | relative viability (Zosuquidar + Bortezomib; first compound 1 µM): 0.625 | relative viability (Kobe2602 + Alpelisib; first compound 0.2 µM): 1 | relative viability (Kobe2602 + Alpelisib; first compound 0.6325 µM): 1.03 | relative viability (Kobe2602 + Alpelisib; first compound 2 µM): 0.954 | relative viability (Kobe2602 + Alpelisib; first compound 6.325 µM): 0.94 | relative viability (Kobe2602 + Alpelisib; first compound 20 µM): 0.976 | relative viability (Kobe2602 + Navitoclax; first compound 0.2 µM): 0.322 | relative viability (Kobe2602 + Navitoclax; first compound 0.6325 µM): 0.327 | relative viability (Kobe2602 + Navitoclax; first compound 2 µM): 0.292 | relative viability (Kobe2602 + Navitoclax; first compound 6.325 µM): 0.312 | relative viability (Kobe2602 + Navitoclax; first compound 20 µM): 0.316
